Assay results from patent EP0451299B1, “MAGNETOCONTROLLABLE CARRIER WITH PHYSIOLOGICALLY ACTIVE SUBSTANCE AND METHOD FOR MAKING SAID CARRIER” (KHOLODOV, Leonid Efimovich, priority 1989, dated 1991).

Assays:
[1] = system: carcinosarcome de Walker, sarcome S-45 ou sarcome M-1; format: in vivo, rats; conditions: for régression complète de la tumeur / durée de vie, augmentation par rapport au groupe témoin (sans antibiotiques): ordinary solution i.v., no carrier: daunorubicyne 2 mg/kg/jour for 5 days, carminomicyne 3 x 0,4 mg/kg at 120 h intervals; for durée de vie, augmentation par rapport au groupe témoin (sans antibiotiques): mean; for examens histologiques de divers tissus, surtout du tissu hépatique / hémopoïèse: rat, in vivo, iv
From the text: Dans les essais effectués, le support selon l'invention était porteur d'une préparation anticancéreuse : daunorubicyne, doxorubicyne ou carminomicyne; teneur en fer : 56 à 64 % en masse, le reste étant du carbone; teneur en antibiotique daunorubicyne, doxorubicyne ou carminomycine adsorbé : 2 à 2,5 % en masse.
L'action anticancéreuse a été établie chez des rats et comparée à celle des microsphères connues portant lesdits antibiotiques (taille moyenne des microsphères: 0,2 à 0,5 »m; enveloppe en albumine dénaturée), ainsi qu'à celle de ces médicaments anticancéreux sans support à commande magnétique. Les sujets expérimentaux étaient des rats d'une masse allant de 180 à 220 g. On a réinoculé aux rats (au milieu de la queue) une des […] couches des tumeurs réinoculables des rats; carcinosarcome de Walker, sarcome S-45 ou sarcome M-1 (40 rats pour chaque souche). Le traitement des animaux a commencé lorsque le volume de la teneur avait 1000 mm³.
Le support selon l'invention contenant de la daunorubicyne ou de la carminomicyne a été injecté en une seule fois lentement dans la veine caudale des rats, dose de 40 mg (0,8 mg en calculant en antibiotique, soit 4 mg/kg), sous forme d'une suspension en 1 ml de solution de gélatinol à 8 % pour injections. Dans le cas de la doxorubicyne la dose a été de 12 mg/kg (dose de support : 96 mg en calculant en antibiotique. Avant l'injection, un aimant permanent de samarium-cobalt (6000 Oe) a été fixé sur la queue au niveau de la tumeur. La localisation du support à antibiotique selon l'invention dans le vaisseau au niveau de la tumeur a été contrôlée à l'aide de radiogrammes.
Les microsphères albumineuses ont été injectées en une seule fois, comme décrit ci-dessus, dans une dose de 4 mg/kg (en calculant en daunorubicyne ou en carminomicyne). Les antibiotiques (sans support à commande magnétique) ont été injectés comme suit : la daunorubicyne a été injectée dans la veine caudale des rats avec une dose de 2 mg/kg/jour en solution de gélatinol à 8 % pour des injections pendant 5 jours (une injection par jour); carminomicyne : 0,4 mg/kg 3 fois avec des intervalles de 120 heures; doxorubicyne : en une seule fois avec une dose de 12 mg/kg. Dans le groupe témoin des animaux atteints de tumeur on a injecté dans la veine, 1 ml de solution de gélatinol à 8 % pour injections.

[2] = system: oedème provoqué par le dextrane; experiment: Anti-oedema activity, dextran-induced tail oedema (plethysmometer); format: in vivo, rats; conditions: ordinary solution i.v. 20 mg/kg; 1 hour after injection
From the text: On a essayé l'activité anti-oedémique du support, selon l'invention, contenant une préparation antihistaminique (la diphénylhydramine). Le support selon l'invention se composait de 56 à 63 % en masse de fer et de carbone pour le reste; la teneur en diphénylhydramine adsorbée était de 3 % en masse.
Des essais comparatifs de l'activitié anti-oedémique ont été effectués en la comparant à celle de la diphénylhydramine injectée sous forme de solution ordinaire.
Les sujets des essais étaient 30 rats mâles de la population Vistar d'un poids allant de 180 à 220 g. Pour obtenir un oedème expérimental, on a injecté par voie subplantaire au milieu de la queue de 10 rats, 0,1 ml de solution aqueuse de dextrane à 4 %. Un aimant permanent de samarium-cobalt (6000 Oe) a été fixé à cet endroit et on a injecté aussitôt lentement dans la veine caudale 20 mg de support, selon l'invention, contenant 0,6 mg de diphénylhydramine en 0,7 ml de solution de gélatinol à 8 % pour injections (dose moyenne en calculant en diphénylhydramine : 3 mg/kg). La localisation de la dispersion dans le canal vasculaire a été contrôlée par radiographie. Chez 10 rats on a injecté de la même façon la solution de dextrane et on a injecté aussitôt dans la veine caudale la solution de diphénylhydramine (dose : 20 mg/kg, soit en moyenne 5 mg par rat) en 0,7 ml de solution de gélatinol à 8 % pour injections. […]

Compound	régression complète de la tumeur [1]	durée de vie, augmentation par rapport au groupe témoin (sans antibiotiques) [1]	examens histologiques de divers tissus, surtout du tissu hépatique [1]	hémopoïèse [1]	augmentation du volume de la queue [2]	augmentation du volume de la queue plus faible que dans le groupe témoin [2]
CC(=O)[C@]1(O)Cc2c(O)c3c(c(O)c2[C@@H](O[C@H]2C[C@H](N)[C@H](O)[C@H](C)O2)C1)C(=O)c1c(O)cccc1C3=O [carminomicyne]	en aucun cas	15-30%	altérations cytotoxiques graves	oppression de l'hémopoïèse		
COc1cccc2c1C(=O)c1c(O)c3c(c(O)c1C2=O)C[C@@](O)(C(C)=O)C[C@@H]3O[C@H]1C[C@H](N)[C@H](O)[C@H](C)O1 [daunorubicyne]	en aucun cas	15-30%	altérations cytotoxiques graves	oppression de l'hémopoïèse		
CN(C)CCOC(c1ccccc1)c1ccccc1 [diphénylhydramine]					1025±41 mm³	33±2%
